In data set [1] the test system is BMDCs. The data set can be described thus: Proinflammatory cytokines secreted by BMDCs (bead arrays). Type of data set: cell-based, Balb/c mice. How it is done: The dendritic cells used in the experiment are dendritic cells differentiated from bone marrow cells (BMDC). […] After 10 days, suspended immature BMDCs are collected for further experiments. […] The cellular uptake of the f-PANI-GCS-R848 by the BMDCs is measured by flow cytometry and immunofluorescence staining. The experiment further includes the BMDCs treated with medium only as a control. Flow cytometry is performed to measure the cell uptake of f-PANI-GCS-R848 by BD Accuri™ C6 flow cytometer (BD Biosciences, San Jose, Calif., USA), and data are analyzed using FlowJo (Treestar, Ashland, Oreg., USA). In immunofluorescence staining, LysoTracker is used as a cell marker for endosome. The BMDCs are incubated with LysoTracker™ Red DND-99 (Thermo Fischer Scientific) containing medium for 2 hours, washed, and stained with 4′,6-diamidino-2-phenylindole (DAPI) in PBS for 10 minutes. Finally, the BMDCs are observed and imaged under a confocal laser scanning microscopy (CLSM, LSM 780, Carl Zeiss, Jena, Germany). […] The BMDCs and the culture supernatants are then collected separately. The expression of mature dendritic cell markers CD80 and CD86 in the treated BMDCs are analyzed by flow cytometry, and the concentrations of inflammatory cytokines secreted by mature dendritic cells in the supernatant are measured by […] beads arrays (CBA, BD Bioscience). The experiment further includes the BMDCs treated with medium only as negative controls (represented as “PBS”). The flow cytometry includes follow steps. The BMDCs are incubated with APC-conjugated anti-mouse CD80 antibody (eBioscience) or FITC-conjugated anti-mouse CD86 Antibody (eBioscience), and then analyzed by BD Accuri™ C6 flow cytometer.

For data set [2], the system named is CT26 primary tumor. The data set can be described thus: Animal treatment test: primary tumor size and survival. Type of data set: in vivo, Balb/c mice. Conditions: without NIR; treated day 14, 21, 28. How it is done: Experimental animals used in the experiments are Balb/c mice (6-8 weeks old), which are purchased from BioLASCO Taiwan Co., Ltd. (Taipei, Taiwan). All the animal experiments are performed according to “Guide for the Care and Use of Laboratory Animals” developed by the Institute of Laboratory Animal Resources, National Research Council. Balb/c mice are inoculated with 1×10^6 CT26 cells subcutaneously on their right flanks (primary tumor). Fourteen days later when the tumor diameter is about 5 mm (or the tumor volumes reach 150-200 mm^3), the Balb/c tumor mice are established and further used to test the cancer treatment effects on the immunothermosensitive composition and the kit for treating cancer of the present disclosure, and whether the immunothermosensitive composition and the kit for treating cancer of the present disclosure can achieve the dual effects of hyperthermia therapy and immunotherapy.
Further, the cancer treatment effects on the immunothermosensitive composition and the kit for treating cancer of the present disclosure is confirmed in the experiment. […] The size of each primary tumor, which is estimated as length×width×height×π/6, is assessed using a pair of caliper every 2-3 days. […] The Balb/c tumor mice with the rechallenged tumor are no longer treated, but the size of each rechallenged tumor is observed and recorded. […]

Data set [3] relates to CT26 cells. The data set can be described thus: Cytotoxicity, CellTiter-Glo cell viability assay. In kind it is cell-based, murine. Conditions: 0.625 μg/mL to 10 μg/mL, 24 hours. The procedure:
The experiment further includes untreated CT26 cells, the CT26 cells treated with free R848 or the CT26 cells treated with the carrier PANI-GCS as a control. […] The CT26 cells are seeded in 96-well plates at 1×10^4 cells/well for 24 hours. […] The viability of the CT26 cells is evaluated by the CellTiter-Glo® Luminescent Cell Viability Assay kit (Promega, Madison, Wis., USA).
A general note: ATP-based viability assays read luminescence as a measure of living cells.

Where [4] appears, read: at 24 hours, 5 μg/mL free R848, 50 μg/mL PANI-GCS-R848.
[5] abbreviates: at 48 hours and 72 hours (after 24 hours).

For `CCOCc1nc2c(N)nc3ccccc3c2n1CC(C)(C)O` [R848, resiquimod], in data set [1] (setting [4]), the IL-6 secretion entry is on record as “notable levels” and the TNF-α secretion result is recorded as “notable levels”. Besides, in data set [1] (setting [5]), the IL-6 secretion entry is on record as “do not change significantly” and the TNF-α secretion result is listed as “do not change significantly”. In addition, the “growth of the primary tumor” value in data set [2] is “slightly delayed”. For the same molecule, the “cytotoxicity (cell viability)” value in data set [3] is on record as “not significantly cytotoxic”.

These data come from patent US20200206349A1, “Immunothermosensitive Composite, Kit For Treating Cancer, And Use Thereof” (National Tsing Hua University, priority 2018, published 2020).
